From patent US8206722B2, “Somatostatin receptor antagonists and glucose control or hypoglycemia” (The Governing Council of the University of Toronto, priority 2007, dated 2012)
Each block holds one substance with its values, some of them ahead of it.

What was measured:
SSTR-2 = SSTR-2 (Homo sapiens, UniProt P30874); settings: antagonist at SSTR-2, cited from earlier work
[1] = system: non-diabetic and STZ-diabetic rats; assay: Insulin-induced hypoglycemic glucose clamp with SSTR antagonist infusion in non-diabetic and STZ-diabetic rats; type: in vivo, rat
Method: FIG. 1 indicates levels of plasma glucose levels in four groups of rats during the 1-h SSTR antagonist/saline pretreatment and 3-h hypoglycemic clamp experiment. […] A similar glycemic profile is observed in FIG. 1B when another dose of insulin and SSTR antagonist (DC-41-33) were tested (5 U/kg and 3000 nmol/kg/h, respectively).
Non-diabetic and STZ-diabetic rats were injected with insulin (10 U/kg and 5 U/kg). These doses yielded reproducible responses of plasma glucose (FIG. 1). In diabetic rats, plasma glucose is elevated approximately 3- to 4-fold before hypoglycemia is induced. A subcutaneous injection of insulin was given immediately after the sample was taken at time 0 in all groups of rats to induce hypoglycemia. Plasma glucose levels dropped to the same target hypoglycemia (2.75±0.25 mM) in both non-diabetic and diabetic rats. […] This technique of glucose clamping is a well-established method in diabetes research which allows precise comparison between different groups at a specific glycemic level.
This technique is referred to as the “glucose clamp” and is achieved by intravenously infusing glucose whenever necessary.

isolated islets = isolated islets and perifused isolated islets; reversed dose-dependently by added somatostatin; cited from earlier work
[2] = system: isolated, perfused pancreas; settings: perfused pancreas of non-diabetic rats; cited from earlier work
non-diabetic rats = settings: cited from earlier work

Sequence of SSTR-2 (P30874 whole entry, species assumed, the tested form may be a part): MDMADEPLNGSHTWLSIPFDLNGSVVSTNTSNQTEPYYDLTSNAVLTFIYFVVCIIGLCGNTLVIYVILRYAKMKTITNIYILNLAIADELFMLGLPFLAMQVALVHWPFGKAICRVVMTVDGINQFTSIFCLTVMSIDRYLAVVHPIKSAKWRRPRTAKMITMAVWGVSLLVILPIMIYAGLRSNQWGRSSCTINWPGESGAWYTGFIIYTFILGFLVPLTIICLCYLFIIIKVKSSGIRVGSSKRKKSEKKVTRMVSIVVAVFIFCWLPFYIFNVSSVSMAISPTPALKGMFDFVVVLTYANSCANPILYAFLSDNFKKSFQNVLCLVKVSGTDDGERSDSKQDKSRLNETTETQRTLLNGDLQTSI

Substance: H-Cpa-cyclo[Cys-Pal-DTrp-Lys-Ile-Cys]-Nal-NH2 [PRL-2915]
Affinity (nM), Units pKi (SSTR-2): 7.9 pKi

Substance: H-Cpa-cyclo[DCys-Tyr-DTrp-Lys-Thr-Cys]-Nal-NH2 (XCYWKTCX; Cpa, Nal, D-residues, cyclic disulfide, C-terminal amide; Synthetic - PRL-2970)
Affinity (nM), Units pKi (SSTR-2): 7.6 pKi

plasma epinephrine levels during basal infusion of antagonist ([1]; basal infusion before insulin, antagonist 1500 nmol/kg/h, FIG. 7): did not affect plasma epinephrine levels
growth hormone (GH) levels ([1]; diabetic rats, regardless of hypoglycemia, insulin 5 U/kg, antagonist 3000 nmol/kg/h, FIG. 9): did not affect GH levels
plasma norepinephrine during basal infusion and insulin-induced hypoglycemia ([1]; insulin 10 U/kg, antagonist 1500 nmol/kg/h, FIG. 8): no effect
Substance: H-Fpa-cyclo[DCys-Pal-DTrp-Lys-Tle-Cys]-Nal-NH2 [DC-41-33]
peak glucagon response to hypoglycemia, increase ([1]; diabetic rats, insulin 5 U/kg, antagonist 3000 nmol/kg/h, FIG. 3): ~7 fold
corticosterone response to hypoglycemia ([1]; diabetic rats, insulin 5 U/kg, antagonist 3000 nmol/kg/h, FIG. 5): fully normalized
plasma glucagon before insulin and throughout hypoglycemia ([1]; diabetic rats, insulin 10 U/kg, antagonist 1500 nmol/kg/h, FIG. 2): glucagon was increased
increase in plasma epinephrine levels (AUC) in response to hypoglycemia ([1]; diabetic rats, insulin 10 U/kg, antagonist 1500 nmol/kg/h, FIG. 7): 4 fold
glucose infusion requirement during 3 h hypoglycemic clamp ([1]; non-diabetic and diabetic rats versus untreated controls, insulin 5 U/kg, antagonist 3000 nmol/kg/h, FIG. 6): less glucose infusion was necessary
corticosterone response to hypoglycemia ([1]; non-diabetic and diabetic rats, insulin 10 U/kg, antagonist 1500 nmol/kg/h, FIG. 4): augmented to the same extent
corticosterone response to hypoglycemia ([1]; non-diabetic and diabetic rats, insulin 10 U/kg, antagonist 1500 nmol/kg/h, FIG. 4, listed as SSTR2 antagonist): increases in the corticosterone response
increase in plasma glucagon induced by insulin, with versus without antagonist ([1]; non-diabetic rats, insulin 10 U/kg, antagonist 1500 nmol/kg/h, FIG. 2): 3 fold
IC50 (SSTR-2; Units column prints pIC50, read-out: Affinity (nM), Units pIC50 (converted)): 27.4 nM
glucagon secretion to an arginine stimulus (isolated islets): dose-dependently increases glucagon secretion
glucagon secretion [2]: enhances glucagon secretion
insulin secretion [2]: without affecting insulin secretion
reversal of inhibition by GIP, GIP-(1-30)NH2 and GLP-1(7-36)NH2 of pentagastrin-stimulated gastric acid secretion (non-diabetic rats): able to reverse the inhibitory effect

Substance: HFIRWF [AC-178,335, Ac-His-Phe-Ile-Arg-Trp-Phe-NH2]
Affinity (nM), Units pKi (SSTR-2): 6.8 pKi
